{
  "source": "patent US10456465B2",
  "about": "“Compositions, kits, and methods for the diagnosis prognosis, monitoring, treatment and modulation of post-transplant lymphoproliferative disorders and hypoxia associated angiogenesis disorders using galectin-1” (Dana-Farber Cancer Institute, Inc., priority 2009, dated 2019)",
  "key": {"[1]": {"system": "KS cells", "test": "Gal1 expression and secretion by KS cells (hypoxia/normoxia)", "assay_type": "cell-based, human", "settings": "for IκB-α degradation: hypoxia; for hypoxia-driven Gal1 expression and secretion: hypoxia (1% O2)"}, "[2]": {"target": "T1, Gal1 (Homo sapiens, UniProt P09382)", "T1 construct": "made in house", "T1 sequence (P09382 whole entry)": "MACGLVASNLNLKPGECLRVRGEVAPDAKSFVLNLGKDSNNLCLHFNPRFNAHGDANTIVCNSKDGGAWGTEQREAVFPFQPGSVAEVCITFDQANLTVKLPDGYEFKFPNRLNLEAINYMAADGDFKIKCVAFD", "test": "Binding of 488-Gal1 to HUVEC", "settings": "lactose/sucrose 30 mM, swainsonine 3 μM, benzyl-α-GalNAc 2 mM, mAb 0.5 μM", "description": "For glycophenotyping, ECs were incubated with biotinylated L-PHA, LEL, SNA, MAL II, PNA and HPA (all from Vector). Recombinant Gal1 was purified as described in Ilarregui et al. (2009) Nat Immunol 10, 981-991. For binding assays, ECs were incubated for 1 h at 4° C. with dyLight 488-labeled galectins in the absence or presence of lactose, sucrose, anti-Gal1 or isotype control mAb or following transfection with GnT5, GCNT1 or scrambled siRNA. Cells were analyzed on a FACSAria (BD Biosciences). For segregation, ECs were treated with Gal1 for 1 h, fixed and incubated for 1 h with anti-human VEGFR2 antibody (55B11; Cell Signaling) as described in Ilarregui et al. (2009) Nat Immunol 10, 981-991. Cells were analyzed on a Nikon laser confocal microscope (Eclipse E800).\nDyLight 488-conjugated Gal1 (488-Gal1) was obtained using DyLight labeling kit (Thermo Scientific). Inhibitors of Jak2-STAT3 (AG490; 5 μM), Jnk-SAP (SP600125; 20 μM), p38 (SB202190; 10 μM), HIF-1α (3 μM) and O-glycosylation (benzyl-α-Ga1NAc; 2 mM) were from Calbiochem. Inhibitors of Erk1/2 (U0126; 5 μM), PI(3)K-Akt (Ly294002; 2 μM) and NF-κB (BAY 11-7082; 1 μM), ROS (N-acetyl-cysteine; NAC), N-glycosylation (swainsonine; 3 μM), lactose or sucrose (30 mM) were from Sigma. PNGase F (25 U/μg protein) was from New England Biolabs. Recombinant cytokines including IL-10 (50 ng/ml), IL-17 (5 ng/ml), TGF-β1 (3 ng/ml), IFN-γ (50 ng/ml), VEGF (20 ng/ml), bFGF (10 ng/ml) were from R&D. TNF (20 ng/ml) was from Sigma. Biotinylated lectins, including L-PHA (2 μg/ml), LEL (1 μg/ml), SNA (5 μg/ml), MAL II (10 μg/ml), PNA (10 μg/ml) and HPA (10 μg/ml) were purchased from Vector Labs and incubated in buffer containing 150 mM NaCl, 10 mM HEPES and 1% BSA (Sigma). ON-TARGETplus SMART siRNA pools against GnT5, GCNT1, VEGFR2, NRP-1, VEGF, HIF-1α and scrambled were obtained from Dharmacon. Transfections were performed by Lipofectamine-RNAiMAX (Invitrogen) following manufacturer's directions. Recombinant Gal3 and Gal8 were purified as described in Acosta-Rodriguez et al. (2004) J Immunol 172, 493-502 and Cardenas Delgado et al. (2010) FASEB J [Epub ahead of print]."}, "[3]": {"system": "HUVEC", "test": "HUVEC proliferation ([3H]thymidine incorporation)", "assay_type": "cell-based, human", "settings": "induced by Gal1", "description": "(§1) HUVEC transfected or not with specific siRNA or pre-incubated with signaling pathway inhibitors were exposed to VEGF or Gal1 with or without lactose, sucrose, 8F4F8G7 mAb or control isotype (IgG1κ) or specific antibodies for VEGFR1 (AP-MAB0702; Abcam), VEGFR2 (AF357; R&D), VEGFR3 (AB89501; Abcam) or VEGF (MAB293; R&D). Cells were processed for proliferation, migration, invasion and tube formation assays. Tumor-associated blood vessels were identified by flow cytometry using Alexa Fluor 647-conjugated anti-CD34 antibody (RAM34; eBioscience).\nFor proliferation assays, HUVEC that were transfected or not with specific siRNA and cultured in complete M199 medium were trypsinized, harvested and seeded in 96-well microtiter plates (1×10^3 cells/well). Cells were pre-incubated for 1 hour at 37° C. with lactose, sucrose or signaling pathway inhibitors and then exposed to Gal1. After 24 hours, cells were incubated for an additional 24 hours in the presence of 0.8 μCi [^3H]-thymidine (NEN Dupont). Cells were then harvested and radioactivity was measured in a 1414 Liquid Scintillation Counter (Perkin Elmer)."}, "[4]": {"system": "HUVEC", "test": "HUVEC migration (transwell)", "assay_type": "cell-based, human", "settings": "induced by Gal1", "description": "as §1\n(§2) The formation of capillary-like tubular structures was assessed in Matrigel-coated plates essentially as described in Albini et al. (2001), Cancer Res 61, 8171-8178. In brief, HUVEC (3×10^4 cells/ml) transfected or not with specific siRNA or pre-incubated with signaling pathway inhibitors were seeded on Matrigel with our without Gal1 (0.1 to 3 μM) or VEGF (20 ng/ml) with or without lactose, sucrose, 8F4F8G7 mAb (0.5 μM) or isotype control (IgG1K) or blocking antibodies specific for VEGFR1 (5 μg/ml), VEGFR2 (2 μg/ml), VEGFR3 (10 μg/ml) or VEGF (10 μg/ml). Cells were incubated at 37° C. for periods ranging from 0 to 24 h and were visualized by phase-contrast microscopy. In another set of experiments, conditioned medium from hypoxic or normoxic KS cells infected or not with a retroviral vector containing Gal1 shRNA was assessed on HUVEC transfected or not with GnT5, GCNT1 or scr siRNA (100 nM). Capillary-like tubular structures were scored by counting the number of tubules (closed areas) per well in a phase-contrast microscope (Nikon E-100). For migration assays, HUVEC (4×10^4/well) transfected or not with specific siRNA were resuspended in M199 medium supplemented with 1% FCS. Cells were placed into the top chamber of the insert while the bottom well was filled with Gal1 or VEGF in the absence or presence of lactose, sucrose, 8F4F8G7 mAb or isotype control. After 24 hours, inserts were stained with crystal violet (Sigma) and analyzed in an inverted microscope. For each filter, 4 images were collected and cells were counted with the ImageJ software v1.34 (NIH)."}, "[5]": {"system": "HUVEC", "test": "HUVEC capillary tube formation on Matrigel", "assay_type": "cell-based, human", "settings": "induced by Gal1", "description": "as §1, §2"}, "[6]": {"system": "mice (Matrigel plugs)", "test": "In vivo vascularization of Matrigel sponges", "design": "species or system mouse", "settings": "lactose 30 mM", "description": "Invasion assays were performed using the BioCoat Angiogenesis system (BD Biosciences) following manufacturer's recommendations. For assessment of in vivo angiogenesis, growth factor-reduced Matrigel (BD Biosciences) was mixed with Gal1 (0.1 or 3 μM) with or without lactose (30 mM). In another set of experiments, serum-free CM from KS cells infected or not with a retroviral vector expressing Gal1 shRNA and cultured under hypoxic or normoxic conditions, were added to unpolymerized Matrigel and injected subcutaneously into the flanks of either wild-type or Lgals1^−/− (B6) mice or nude mice using a cold syringe. Matrigel embedded with buffer alone was used as negative control and a cocktail containing VEGF (50 ng/ml), heparin (50 U/ml) and TNF (2 ng/ml) was used as positive control. After 6 days, Matrigel plugs were collected by surgery, photographed and weighed. Samples were minced and diluted in water to measure hemoglobin content using the Drabkin reagent kit (Sigma). Each sample was normalized to 100 mg of recovered gel and confronted with a standard curve of mouse blood hemoglobin."}},
  "data": [
    {"smiles": "Cc1ccc(S(=O)(=O)/C=C/C#N)cc1", "note": "[BAY-117802]", "values": [
      {"measurement": "IκB-α degradation", "setting": "[1]; KS cells", "result": "prevented"},
      {"measurement": "hypoxia-driven Gal1 expression and secretion", "setting": "[1]; KS cells", "result": "completely eliminated"}
    ]},
    {"smiles": "[Cl-].[Cl-].[Co+2]", "note": "[CoCl2]", "values": [
      {"measurement": "Gal1 expression", "setting": "[1]", "result": "no effect"}
    ]},
    {"smiles": "OO", "note": "[H2O2]", "values": [
      {"measurement": "secretion of Gal1", "setting": "[1]; KS cells, exogenous administration", "result": "stimulated"}
    ]},
    {"smiles": "CC(=O)N[C@@H](CS)C(=O)O", "note": "[N-acetyl-cysteine]", "values": [
      {"measurement": "IκB-α degradation", "setting": "[1]; KS cells", "result": "prevented"},
      {"measurement": "hypoxia-driven Gal1 expression and secretion", "setting": "[1]; KS cells", "result": "strongly inhibited"}
    ]},
    {"smiles": "CC(=O)N[C@H]1[C@@H](OCc2ccccc2)O[C@H](CO)[C@H](O)[C@@H]1O", "note": "[benzyl-α-Ga1NAc]", "values": [
      {"measurement": "effect on binding of Gal1 to ECs", "setting": "[2]", "result": "only partially inhibitory"}
    ]},
    {"smiles": "OC[C@H]1O[C@@H](O[C@H]2[C@H](O)[C@@H](O)C(O)O[C@@H]2CO)[C@H](O)[C@@H](O)[C@H]1O", "note": "(some centres unmarked) [lactose, reference compound]", "values": [
      {"measurement": "effect on binding of Gal1 to ECs", "setting": "[2]", "result": "prevented"},
      {"measurement": "effect on Gal1-induced EC proliferation", "setting": "[3]", "result": "completely prevented"},
      {"measurement": "effect on Gal1-induced EC migration", "setting": "[4]", "result": "completely prevented"},
      {"measurement": "effect on Gal1-induced capillary tube formation", "setting": "[5]", "result": "completely prevented"},
      {"measurement": "effect on Gal1-induced vascularization of Matrigel sponges", "setting": "[6]", "result": "specifically inhibited"}
    ]},
    {"smiles": "OC[C@H]1O[C@@](CO)(O[C@H]2O[C@H](CO)[C@@H](O)[C@H](O)[C@H]2O)[C@@H](O)[C@@H]1O", "note": "[sucrose]", "values": [
      {"measurement": "effect on binding of Gal1 to ECs", "setting": "[2]", "result": "not"}
    ]},
    {"smiles": "O[C@H]1[C@H]2[C@H](O)CCCN2C[C@H]1O", "note": "[swainsonine]", "values": [
      {"measurement": "effect on binding of Gal1 to ECs", "setting": "[2]", "result": "almost completely abrogated"}
    ]}
  ]
}
